Laboratory results published in patent publication US7713923B2, “Self-assembling peptides incorporating modifications and methods of use thereof” (Massachusetts Institute of Technology, priority 2003, dated 2010).

How the values were obtained:
[1] = Circular dichroism (secondary structure); assay type: physicochemical; details: 25 μM peptide in water, room temperature, 195-250 nm
Protocol: Circular dichroism (DC). CD spectra were gathered on an Aviv model 202 spectropolarimeter. Samples were prepared by diluting stock peptide solutions in water (0.5%) to a working concentration of 25 μM. Samples were analysed at room temperature in a quartz cuvette with a path length of 0.3 cm and in the wavelength range 195-250 nm.
Circular dichroism. CD spectra were obtained for each peptide sequence to assess its secondary structure. The secondary structure identifies ordered structures within a polypeptide such as α-helices and β-sheets. […] (Havel, 1996).

[2] = tested on: human aortic endothelial cells (HAEC); experiment: HAEC proliferation and competition assays with soluble peptide motifs; assay type: cell-based; details: 100% RAD16-I, no soluble peptide, improved cell isolation
Protocol: Meanwhile, human aortic endothelial cells (HAEC) (CC-2535, Cambrex, MD) that had been maintained under standard culture conditions (passage 5-6) were harvested at 80% confluence using trypsin and loaded on top of the preformed peptide scaffolds at a cell density of 8×10^4 cells/cm^2 and cultured in the cell culture incubator at 37° C. with 5% CO2. Cell attachment assays were performed one hour after the initial cell loading. To perform the assays, the covering media was removed, and unattached cells were counted on a hematocytometer. Cell counting was performed by mechanically disrupting the scaffold containing cells by pipetting up and down and then counting cells on a hematocytometer after performing Trypan blue (T 9906, Sigma, MO) exclusion assay staining to assess cell viability. In some experiments, for comparison, EC were cultured on inserts coated with Matrigel or collagen (1.5 mg/ml, i.e. 0.15%) according to standard protocols.
Competition assays with free soluble peptide sequences. HAEC were cultured as described on peptide scaffolds in cell culture inserts as described above. For each scaffold, the corresponding soluble motif sequence, or one of the other motifs not present in the scaffold, was added to the media of HAEC cultures at a final concentration of 400 μg/ml. Half of the media was changed every other day. […] The next day, cell numbers were evaluated as described above. […]

[3] = tested on: human aortic endothelial cells (HAEC); experiment: NO release determination (Griess method); assay type: cell-based; details: nitrite in culture supernatant; RAD16-I 100%, others 9:1 blend
Protocol: NO release determination. Nitric oxide (NO) release was estimated by measuring nitrites (NOx) by the Griess method. Briefly, the media was replaced after the third day of culture by new media without fetal bovine serum (FBS) or ascorbic acid. The next day, the media was used to analyze NO release using a commercially available kit (482702, Calbiochem, CA) following the manufacturer instructions. Each condition was tested in triplicate.

Secondary structure (CD) [1]: β-sheet
Compound: CC(=O)N[C@@H](CCCNC(=N)N)C(=O)N[C@@H](C)C(=O)N[C@@H](CC(=O)O)C(=O)N[C@@H](C)C(=O)N[C@@H](CCCNC(=N)N)C(=O)N[C@@H](C)C(=O)N[C@@H](CC(=O)O)C(=O)N[C@@H](C)C(=O)N[C@@H](CCCNC(=N)N)C(=O)N[C@@H](C)C(=O)N[C@@H](CC(=O)O)C(=O)N[C@@H](C)C(=O)N[C@@H](CCCNC(=N)N)C(=O)N[C@@H](C)C(=O)N[C@@H](CC(=O)O)C(=O)N[C@@H](C)C(N)=O [RAD16-I, AcN-(RADA)4-CONH2]
HAEC proliferation lower than on scaffolds made from peptide blends [2]: 2-2.5 fold | nitric oxide (NO) release by HAEC [3]: promote NO release
